Source: US9238036B2, “Pharmaceutical uses of lanosta-8,24-dien-3-ols” (priority 2008, dated 2016)

Tests used:
Format in all cases: in vivo
[1] = system: PKC; assay: PKC activity on the skin of mice, ELISA; conditions: topical, FIG. 2
Description: (§1) In all examples that follow, 20-30 g male mice were kept in filtered-air ventilated cages, with controlled temperature (22±2° C.) and humidity (50-60%), 12 h light/12 h dark cycles, with free access to water and food. The animals remained in the lab for an adaptation period of at least 1 hour before the pharmacological tests, held between 8:00 and 17:00 h.
This was an evaluation of the effect of the compounds of the invention upon the PKC activity, on the skin of mice. The animals received the following 100 μg/ear compositions: • a positive control, namely TPA (tetradecanoylphorbol-13-acetate), 2.5 μg/ear, in a vehicle comprising a 3:1 mixture of acetone:ethanol. • a negative control, namely the vehicle, which is a 3:1 mixture of acetone:ethanol; • A mixture of 100 μg euphol and 2.5 μg TPA, per ear, in a vehicle comprising a 3:1 mixture of acetone:ethanol.
5-member groups of mice were topically applied, in the inner surface of the ears, the compositions above. The PKC activity, before and after exposure to the tested compositions, was measured using ELISA (enzyme-linked immuno sorbent assay).

[2] = system: mice ears; assay: Ear thickness after topical TPA (irritating effect / inflammation), mice ears; conditions: euphol 100 μg/ear with TPA 2.5 μg/ear, acetone:ethanol 3:1, FIG. 1
Description: as §1
A characterization of the irritating effect of certain chemical compounds was effected, by comparing the results of treating mice ears topically with: • a positive control, namely TPA (tetradecanoylphorbol-13-acetate), 2.5 μg/ear, in a vehicle comprising a 3:1 mixture of acetone:ethanol. • a negative control, namely the vehicle, which is a 3:1 mixture of acetone:ethanol; • Euphol, 100 μg/ear, a compound of the invention, in a vehicle comprising a 3:1 mixture of acetone:ethanol; • A mixture of 100 μg of euphol and 2.5 μg TPA, per ear, in a vehicle comprising a 3:1 mixture of acetone:ethanol.
5-member groups of mice were topically applied, in the inner surface of the ears, the compositions above. The thickness of the ears, before and after exposure to the tested compositions, was measured using a digital micrometer, and the responses were expressed as mμ.

[3] = system: mice; assay: Inflammatory nociception induced by carragenan, Von Frey filament; conditions: acute; euphol 30 μg/kg oral 1 h before, dexamethasone 0.5 mg/kg s.c. 4 h before carragenan 300 μg/paw; 0.6 g Von Frey; FIGS. 3A, 3B
Description: as §1
The animals' nociceptive mechanical threshold was evaluated as the response frequency of paw withdrawal after ten applications of a Von Frey filament (VHF, Stoelting, Chicago, USA). […] The Von Frey filament was applied to the right hind paw, watching the criteria of (1) application perpendicular to the plantar surface with enough pressure to bend the filament, so as to ensure total pressure; (2) the animals were evaluated when all four paws were accommodated on the wire mesh; (3) a paw withdrawal response was considered when the animal removed the paw entirely from the wire mesh; (4) each animal was stimulated 10 consecutive times, with 1 second duration each stimulation; (5) each paw withdrawal was considered as 10% of a response, with 10 withdrawals corresponding to 100% response. […]
The animals were treated orally with euphol (30 μg/kg) one hour before the carragenan injection. […] Hypernociception was evaluated hourly during 8 hours with a 0.6 g Von Frey filament, as well as after 24 and 48 hours after carragenan injection.

[4] = system: mice; assay: Persistent inflammatory nociception induced by CFA, Von Frey filament; conditions: FIGS. 4A; for mechanical hypernociception induced by CFA, acute treatment: euphol 30 mg/kg or gabapentin 70 mg/kg oral, 1 h before CFA, 0.6 g Von Frey, 4B
Description: as §1
The animals' nociceptive mechanical threshold was evaluated as the response frequency of paw withdrawal after ten applications of a Von Frey filament (VHF, Stoelting, Chicago, USA). The animals were individually placed in 9×7×11 cm transparent acrylic compartments over an elevated wire mesh platform, to allow access to the paw plantar surfaces. The Von Frey filament was applied to the right hind paw, watching the criteria of (1) application perpendicular to the plantar surface with enough pressure to bend the filament, so as to ensure total pressure; (2) the animals were evaluated when all four paws were accommodated on the wire mesh; (3) a paw withdrawal response was considered when the animal removed the paw entirely from the wire mesh; (4) each animal was stimulated 10 consecutive times, with 1 second duration each stimulation; (5) each paw withdrawal was considered as 10% of a response, with 10 withdrawals corresponding to 100% response. […]
Animals were treated orally with 30 mg/kg euphol or 70 mg/kg gabapentin (positive control), 1 hour before the CFA injection. The mechanical hypernociception was measured through stimulation with a 0.6 g Von Frey filament in time intervals of 1, 2, 4, 6, 8, 24 and 48 hours after CFA injection, and up to the re-establishment of the nociceptive response. […] For that, animals received daily 30 mg/kg euphol, orally, for 5 days, and hypernociception was evaluated once a day, 4 hours after the first administration. Mechanical hypernociception was evaluated until the return of the painful response. […]

[5] = system: mice; assay: Neuropathic pain induced by partial constriction of the sciatic nerve, Von Frey filament; conditions: FIGS. 5A; for mechanical nociceptive response induced by partial constriction of the sciatic nerve, acute treatment: euphol 30 mg/kg or gabapentin 70 mg/kg oral on 4th post-operatory day, 5B; for mechanical hypernociception induced by partial constriction of the sciatic nerve, prolonged treatment: once a day for 5 days from the 6th day, 5C
Description: as §1
The animals' nociceptive mechanical threshold was evaluated as the response frequency of paw withdrawal after ten applications of a Von Frey filament (VHF, Stoelting, Chicago, USA). The animals were individually placed in 9×7×11 cm transparent acrylic compartments over an elevated wire mesh platform, to allow access to the paw plantar surfaces. The Von Frey filament was applied to the right hind paw, watching the criteria of (1) application perpendicular to the plantar surface with enough pressure to bend the filament, so as to ensure total pressure; (2) the animals were evaluated when all four paws were accommodated on the wire mesh; (3) a paw withdrawal response was considered when the animal removed the paw entirely from the wire mesh; (4) each animal was stimulated 10 consecutive times, with 1 second duration each stimulation; (5) each paw withdrawal was considered as 10% of a response, with 10 withdrawals corresponding to 100% response.
The procedure here employed was similar to the one described for rats (Pain, 43:205-218, 1990), modified for mice ((Pain, 76:215-222, 1998), and standardized by Bortolanza et al (Eur J Pharmacol., 453:203-208, 2002). The mice were anesthetized with 7% chloral hydrate (0.6% ml/kg […]). Then the sciatic nerve was exposed on top of the thigh about the sciatic trifurcation, and ⅓-½ of the dorsal portion was tied with a suture filament no. 8. In the false-operated group, the sciatic nerve was exposed without the tying. On the 4th post-operatory day, a group of animals was treated orally with 30 mg/kg euphol, and another group treated orally with 70 mg/kg gabapentin, as a positive control. In predetermined times after the treatment (1, 2, 4, 6, 8, 24 and 48 hours) the mechanical threshold was evaluated, through stimulation with a 0.6 Von Frey filament. To assess the effect of the prolonged treatment, the animals were daily administered euphol, from the 6th day, for 5 days and the mechanical hypernociception was evaluated once a day, 4 h after the first administration, until the return of the nociceptive response similar to the control group. After that, the prolonged treatment protocol was repeated to evaluate a possible development of tolerance to the compound.

CCCCCCCCCCCCCC(=O)O[C@@H]1[C@@H](C)[C@@]2(O)[C@@H](C=C(CO)C[C@]3(O)C(=O)C(C)=C[C@@H]23)[C@@H]2C(C)(C)[C@]12OC(C)=O [TPA, tetradecanoylphorbol-13-acetate, reference compound]
PKC activity (ELISA absorbance) vs vehicle group ([1]; TPA 2.5 μg/ear): significant increase in the PKC activity

CC(C)=CCC[C@@H](C)[C@@H]1CC[C@]2(C)C3=C(CC[C@@]12C)[C@@]1(C)CC[C@H](O)C(C)(C)[C@@H]1CC3 [euphol]
inhibitory effect on ear thickness increase (inflammation) [2]: significant even up to 24 hours after the treatment
PKC activity increase induced by TPA (ELISA absorbance) ([1]; 100 μg euphol + 2.5 μg TPA per ear): significantly reduces the increase in PKC activity induced by TPA
inflammatory mechanical hypernociception induced by carragenan (frequency of response, AUC) [3]: significantly reduced
mechanical hypernociception induced by CFA, acute treatment [4]: reduced significantly
nociceptive response caused by CFA, prolonged treatment ([4]; once a day for 5 days, euphol 30 mg/kg oral, 4C): inhibition of the nociceptive response caused by CFA during the 6 following days of treatment
mechanical nociceptive response induced by partial constriction of the sciatic nerve, acute treatment [5]: inhibited in a significant manner
mechanical hypernociception induced by partial constriction of the sciatic nerve, prolonged treatment [5]: reduced in a significant manner

NCC1(CC(=O)O)CCCCC1 [gabapentin, reference compound]
mechanical hypernociception induced by CFA, acute treatment [4]: close to the effect obtained with gabapentin
mechanical nociceptive response induced by partial constriction of the sciatic nerve, acute treatment [5]: inhibited in a significant manner
mechanical hypernociception induced by partial constriction of the sciatic nerve, prolonged treatment [5]: reduced in a significant manner
